According to patent US20130217664A1, “NOVEL COMPOUNDS USEFUL FOR THE TREATMENT OF DEGENERATIVE AND INFLAMMATORY DISEASES” (priority 2012, published 2013):

Legend:
[1] = tested on: pSTAT1(2)-luciferase reporter in HeLa cells triggered with human OSM; assay: JAK-STAT signalling assay; assay type: cell-based; settings: Homo sapiens, HeLa, HeLa cells, pSTAT1(2)-luciferase reporter, human OSM 33 ng/mL; read-out: JAK-STAT IC50
Method: JAK-STAT Signalling Assay
HeLa cells were maintained in Dulbecco's Modified Eagle's Medium (DMEM) containing 10% heat inactivated fetal calf serum, 100 U/mL penicillin and 100 μg/mL streptomycin. HeLa cells were used at 70% confluence for transfection. 20,000 cells in 87 μL cell culture medium were transiently transfected with 40 ng pSTAT1(2)-luciferase reporter (Panomics), 8 ng of LacZ reporter as internal control reporter and 52 ng of pBSK using 0.32 μL Jet-PEI (Polyplus) as transfection reagent per well in 96-well plate format. After overnight incubation at 37° C., 5% CO2, transfection medium was removed. 81 μL of DMEM+1.5% heat inactivated fetal calf serum was added. 9 μL compound at 10× concentration was added for 60 min and then 10 μL of human OSM (Peprotech) at 33 ng/mL final concentration.
After overnight incubation at 37° C., 5% CO2 cells were lysed by adding 100 μL lysis buffer/well (PBS, 0.9 mM CaCl2, 0.5 mM MgCl2, 10% Trehalose, 0.05% Tergitol NP9, 0.3% BSA).
40 μL of cell lysate was used to read β-galactosidase activity by adding 180 μL β-Gal solution (30 μL ONPG 4 mg/mL+150 μL β-Galactosidase buffer (0.06 M Na2HPO4, 0.04 M NaH2PO4, 1 mM MgCl2)) for 20 min.
Luciferase activity was measured using 40 μL cell lysate plus 40 μL of Steadylite as described by the manufacturer (Perkin Elmer), on the Envision (Perkin Elmer).
The positive and negative controls were used to calculate z′ and ‘percent inhibition’ (PIN) values.
Percentage inhibition=((fluorescence determined in the presence of vehicle−fluorescence determined for sample with test compound present)divided by(fluorescence determined in the presence of vehicle−fluorescence determined for sample without trigger))*100.
PIN values were plotted for compounds tested in dose-response and EC50 values were derived.

human JAK1 = molecular target: T1, human JAK1 (Homo sapiens, UniProt P23458); assay: JAK1 inhibition assay (polyGT substrate / Ulight-JAK1 peptide); assay type: biochemical; settings: recombinant human JAK1 catalytic domain; polyGT or Ulight-JAK1 peptide assay
T1 construct: catalytic domain, amino acids 866-1154; catalog number PV4774; purchased Invitrogen PV4774
T1 sequence (P23458 866-1154): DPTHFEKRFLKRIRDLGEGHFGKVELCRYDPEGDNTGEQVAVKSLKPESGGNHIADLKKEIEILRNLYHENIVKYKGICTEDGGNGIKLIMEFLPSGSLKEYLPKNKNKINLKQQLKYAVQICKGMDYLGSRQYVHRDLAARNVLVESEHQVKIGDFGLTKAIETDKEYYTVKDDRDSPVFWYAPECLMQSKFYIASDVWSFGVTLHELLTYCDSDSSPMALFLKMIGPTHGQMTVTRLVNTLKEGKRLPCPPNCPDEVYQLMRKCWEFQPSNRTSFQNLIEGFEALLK
Summary of the method: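 Signal scaled between vehicle and 10 μM staurosporine. Radiometric polyGT reactions ran 45 min at 30 °C, counted after phosphoric-acid stop. Ulight peptide reactions ran 60 min at room temperature, fluorescence read after adding Eu-PT66 detection mix with EDTA.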

human JAK2 = molecular target: T2, human JAK2 (Homo sapiens, UniProt O60674); assay: JAK2 inhibition assay (polyGT substrate / Ulight-JAK1 peptide); assay type: biochemical; settings: recombinant human JAK2 catalytic domain; polyGT or Ulight-JAK1 peptide assay
T2 construct: catalytic domain (amino acids 808-1132; catalog number PV4210); GST; purchased Invitrogen PV4210
T2 sequence (O60674 808-1132): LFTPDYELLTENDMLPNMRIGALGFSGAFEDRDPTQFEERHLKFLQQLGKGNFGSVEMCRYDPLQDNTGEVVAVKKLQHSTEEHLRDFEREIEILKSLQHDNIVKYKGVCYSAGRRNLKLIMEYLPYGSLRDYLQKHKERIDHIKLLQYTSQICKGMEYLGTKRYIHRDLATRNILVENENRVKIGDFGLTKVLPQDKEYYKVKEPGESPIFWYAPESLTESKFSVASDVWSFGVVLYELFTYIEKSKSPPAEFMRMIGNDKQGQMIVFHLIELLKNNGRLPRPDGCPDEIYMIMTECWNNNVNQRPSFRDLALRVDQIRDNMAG
Summary of the method: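 Two JAK2 formats: a ^33P-ATP polyGT assay (1 μM cold ATP, 90 min, 30° C., cpm read-out) and a Ulight-JAK1 peptide assay read by Europium-anti-phosphotyrosine fluorescence after 60 min at room temperature.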

human TYK2 = molecular target: T3, human TYK2 (Homo sapiens, UniProt P29597); assay: TYK2 inhibition assay; assay type: biochemical; settings: recombinant human TYK2 catalytic domain, polyGT substrate
T3 construct: catalytic domain (amino acids 871-1187; catalog number 08-147); purchased Carna Biosciences 08-147
T3 sequence (P29597 871-1187): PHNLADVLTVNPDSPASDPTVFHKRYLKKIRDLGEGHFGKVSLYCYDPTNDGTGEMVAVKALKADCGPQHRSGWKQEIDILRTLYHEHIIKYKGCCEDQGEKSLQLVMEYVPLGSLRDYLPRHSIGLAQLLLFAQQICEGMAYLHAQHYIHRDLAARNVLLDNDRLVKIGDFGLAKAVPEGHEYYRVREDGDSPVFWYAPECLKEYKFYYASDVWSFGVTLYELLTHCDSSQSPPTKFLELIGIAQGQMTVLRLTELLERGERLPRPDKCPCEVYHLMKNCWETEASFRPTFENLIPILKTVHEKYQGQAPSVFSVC
Summary of the method: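 Radiometric kinase reaction run 90 min at 30 °C, stopped with phosphoric acid, washed and scintillation-counted.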

human JAK3 = molecular target: T4, human JAK3 (Homo sapiens, UniProt P52333); assay: JAK3 inhibition assay; assay type: biochemical; settings: recombinant human JAK3 catalytic domain; polyGT substrate
T4 construct: catalytic domain (amino acids 781-1124; catalog number PV3855); purchased Invitrogen PV3855
T4 sequence (P52333 781-1124): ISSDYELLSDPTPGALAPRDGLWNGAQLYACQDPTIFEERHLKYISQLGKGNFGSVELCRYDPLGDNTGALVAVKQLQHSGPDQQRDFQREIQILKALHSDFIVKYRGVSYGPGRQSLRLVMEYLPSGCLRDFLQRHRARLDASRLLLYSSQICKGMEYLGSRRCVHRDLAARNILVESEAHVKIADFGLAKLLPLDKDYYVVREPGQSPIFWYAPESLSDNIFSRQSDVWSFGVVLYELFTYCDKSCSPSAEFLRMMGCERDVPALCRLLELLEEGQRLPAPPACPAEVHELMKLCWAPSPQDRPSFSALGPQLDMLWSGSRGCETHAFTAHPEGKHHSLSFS
Summary of the method: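 Radiometric kinase assay: 0.5 ng JAK3 with 2.5 μg polyGT in Tris pH 7.5/MgCl2 buffer, 1 μM ATP plus 0.25 μCi 33P-γ-ATP, 1% DMSO, 45 min at 30 °C, stopped with phosphoric acid.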

Structure (SMILES) | IC50 [1] [nM] | IC50 (human JAK1) [nM] | IC50 (human JAK2) [nM] | IC50 (human TYK2) [nM] | IC50 (human JAK3) [nM]
CCc1cc(-c2nnc(N)s2)ccc1N(C)c1cc2c(cn1)ncn2C [Compound 193, 5-(3-Ethyl-4-(methyl(1-methyl-1H-imidazo[4,5-c]pyridin-6-yl)amino)phenyl)-1,3,4-thiadiazol-2-amine] | > 1000 |  |  |  | 
CCNC(=O)C1CN(c2cc(CC)c(N(C)c3cc4c(cn3)ncn4C)cn2)C1 [Compound 412, 1-{4-Ethyl-5-[methyl-(1-methyl-1H-imidazo[4,5-c]pyridin-6-yl)-amino]-pyridin-2-yl}-azetidine-3-carboxylic acid ethylamide] |  | 501 to 1000 | 501 to 1000 | > 1000 | > 1000
CCc1cc(N2CCCC(C#N)C2)ncc1N(C)c1cc2c(cn1)ncn2C (centres unmarked) [Compound 416, 4′-Ethyl-5′-[methyl-(1-methyl-1H-imidazo[4,5-c]pyridin-6-yl)-amino]-3,4,5,6-tetrahydro-2H-[1,2′]bipyridinyl-3-carbonitrile] |  | 0.01 to 100 | 0.01 to 100 | 101 to 500 | 0.01 to 100
CCc1cc(N2CC[C@H](C)C2)ncc1N(C)c1cc2c(cn1)ncn2C [Compound 417, [4-Ethyl-6-((S)-3-methyl-pyrrolidin-1-yl)-pyridin-3-yl]-methyl-(1-methyl-1H-imidazo[4,5-c]pyridin-6-yl)-amine] |  | 0.01 to 100 | 0.01 to 100 | 0.01 to 100 | 101 to 500
CCc1cc(N2CCC(C#N)C2)ncc1N(C)c1cc2c(cn1)ncn2C (centres unmarked) [Compound 418, 1-{4-Ethyl-5-[methyl-(1-methyl-1H-imidazo[4,5-c]pyridin-6-yl)-amino]-pyridin-2-yl}-pyrrolidine-3-carbonitrile] |  | 0.01 to 100 | 0.01 to 100 | 0.01 to 100 | 0.01 to 100
Cc1ccc(N(C)c2cc3c(cn2)ncn3C)c(OC(F)F)c1 [Compound 427, (2-Difluoromethoxy-4-methyl-phenyl)-methyl-(1-methyl-1H-imidazo[4,5-c]pyridin-6-yl)-amine] |  | 0.01 to 100 | 0.01 to 100 | > 1000 | > 1000
CN(c1cc2c(cn1)ncn2C)c1ccc(C#N)cc1OC(F)F [Compound 428, 3-Difluoromethoxy-4-[methyl-(1-methyl-1H-imidazo[4,5-c]pyridin-6-yl)-amino]-benzonitrile] |  | 101 to 500 | > 1000 | > 1000 | > 1000
CCc1ccccc1N(C)c1cc2c(cn1)ncn2C(F)F [Compound 431, (1-Difluoromethyl-1H-imidazo[4,5-c]pyridin-6-yl)-(2-ethyl-phenyl)-methyl-amine] |  | 101 to 500 | > 1000 | > 1000 | 101 to 500
CCc1cc(N2CC(N)C2)ncc1N(C)c1cc2c(cn1)ncn2C [Compound 442, [6-(3-Amino-azetidin-1-yl)-4-ethyl-pyridin-3-yl]-methyl-(1-methyl-1H-imidazo[4,5-d]pyridin-6-yl)-amine] |  | 101 to 500 | > 1000 | > 1000 | > 1000
CCc1cc(N2CC(NS(C)(=O)=O)C2)ncc1N(C)c1cc2c(cn1)ncn2C [Compound 443, N-(1-{4-Ethyl-5-[methyl-(1-methyl-1H-imidazo[4,5-c]pyridin-6-yl)-amino]-pyridin-2-yl}-azetidin-3-yl)-methAnesulfonamide] |  | 0.01 to 100 | 0.01 to 100 | 0.01 to 100 | 101 to 500
CCc1cc(C(C#N)N2CCOCC2)ncc1N(C)c1cc2c(cn1)ncn2C (centres unmarked) [Compound 444, {4-Ethyl-5-[methyl-(1-methyl-1H-imidazo[4,5-c]pyridin-6-yl)-amino]-pyridin-2-yl}-morpholin-4-yl-acetonitrile] |  | 0.01 to 100 | 0.01 to 100 | 0.01 to 100 | 101 to 500
CCC(=O)NC1CN(C(C#N)c2ccc(N(C)c3cc4c(cn3)ncn4C)c(CC)c2)C1 (centres unmarked) [Compound 454, N-[1-(Cyano-{3-ethyl-4-[methyl-(1-methyl-1H-imidazo[4,5-c]pyridin-6-yl)-amino]-phenyl}-methyl)-azetidin-3-yl]-propionamide] |  | 0.01 to 100 | 0.01 to 100 | 0.01 to 100 | 101 to 500
CCc1cc(C(C#N)N2CC(NS(C)(=O)=O)C2)ccc1N(C)c1cc2c(cn1)ncn2C (centres unmarked) [Compound 455, N-[1-(Cyano-{3-ethyl-4-[methyl-(1-methyl-1H-imidazo[4,5-c]pyridin-6-yl)-amino]-phenyl}-methyl)-azetidin-3-yl]-methanesulfonamide] |  | 0.01 to 100 | 0.01 to 100 | 0.01 to 100 | 0.01 to 100
CCc1ncncc1N(C)c1cc2c(cn1)ncn2C [Compound 456, (4-Ethyl-pyrimidin-5-yl)-methyl-(1-methyl-1H-imidazo[4,5-c]pyridin-6-yl)-amine] |  | > 1000 | > 1000 | > 1000 | > 1000
CCc1nc(C2CN(C(=O)OC(C)(C)C)C2)cnc1N(C)c1cc2c(cn1)ncn2C [Compound 457, 3-{6-Ethyl-5-[methyl-(1-methyl-1H-imidazo[4,5-c]pyridin-6-yl)-amino]-pyrazin-2-yl}-azetidine-1-carboxylic acid tert-butyl ester] |  | > 1000 | > 1000 | > 1000 | > 1000
CCc1cc(C2(C#N)CN(S(C)(=O)=O)C2)ncc1N(C)c1cc2c(cn1)ncn2C [Compound 458, 3-{4-Ethyl-5-[methyl-(1-methyl-1H-imidazo[4,5-c]pyridin-6-yl)-amino]-pyridin-2-yl}-1-methanesulfonyl-azetidine-3-carbonitrile] |  | 0.01 to 100 | 101 to 500 | 501 to 1000 | 501 to 1000
CCc1ccccc1N(CCN1CCCC1)c1cc2c(cn1)ncn2C [Compound 459, N-(2-ethylphenyl)-1-methyl-N-(2-(pyrrolidin-1-yl)ethyl)-1H-imidazo[4,5-c]pyridin-6-amine] |  | 101 to 500 | > 1000 | > 1000 | > 1000
CCc1ccccc1N(CCN1CCOCC1)c1cc2c(cn1)ncn2C [Compound 460, N-(2-ethylphenyl)-1-methyl-N-(2-morpholinoethyl)-1H-imidazo[4,5-c]pyridin-6-amine] |  | 101 to 500 | > 1000 | > 1000 | > 1000
CCc1ccccc1N(Cc1ccccn1)c1cc2c(cn1)ncn2C [Compound 461, N-(2-ethylphenyl)-1-methyl-N-(pyridin-2-ylmethyl)-1H-imidazo[4,5-c]pyridin-6-amine] |  | > 1000 | > 1000 | > 1000 | > 1000
CCc1ccccc1N(Cc1cccnc1)c1cc2c(cn1)ncn2C [Compound 462, N-(2-ethylphenyl)-1-methyl-N-(pyridin-3-ylmethyl)-1H-imidazo[4,5-c]pyridin-6-amine] |  | 501 to 1000 | > 1000 | > 1000 | > 1000
